Experimental data: PMC7044196, “B38-CAP is a bacteria-derived ACE2-like enzyme that suppresses hypertension and cardiac dysfunction” (Nature Communications, 2020)

How the values were obtained:
[1] = molecular target: T1, recombinant human ACE2 (rhACE2) (Homo sapiens, UniProt Q9BYF1); experiment: fluorogenic peptide hydrolysis assay; type: biochemical
T1 construct: recombinant human ACE2 from Calbiochem for the constants
Text: fluorogenic peptide hydrolysis assay on recombinant human ACE2 (rhACE2)

B38-CAP = test system: T2, B38-CAP; experiment: fluorogenic peptide hydrolysis assay; type: biochemical, Paenibacillus sp. B38; details: pH 7.5 HEPES, 0.3 M NaCl, 0.01% Triton X-100, 37 °C, 30 min; fluorogenic ACE2 substrate
T2 construct: no tag mentioned
Text: fluorogenic peptide hydrolysis assay on B38-CAP

T1 sequence (Q9BYF1 18-740 limits assumed): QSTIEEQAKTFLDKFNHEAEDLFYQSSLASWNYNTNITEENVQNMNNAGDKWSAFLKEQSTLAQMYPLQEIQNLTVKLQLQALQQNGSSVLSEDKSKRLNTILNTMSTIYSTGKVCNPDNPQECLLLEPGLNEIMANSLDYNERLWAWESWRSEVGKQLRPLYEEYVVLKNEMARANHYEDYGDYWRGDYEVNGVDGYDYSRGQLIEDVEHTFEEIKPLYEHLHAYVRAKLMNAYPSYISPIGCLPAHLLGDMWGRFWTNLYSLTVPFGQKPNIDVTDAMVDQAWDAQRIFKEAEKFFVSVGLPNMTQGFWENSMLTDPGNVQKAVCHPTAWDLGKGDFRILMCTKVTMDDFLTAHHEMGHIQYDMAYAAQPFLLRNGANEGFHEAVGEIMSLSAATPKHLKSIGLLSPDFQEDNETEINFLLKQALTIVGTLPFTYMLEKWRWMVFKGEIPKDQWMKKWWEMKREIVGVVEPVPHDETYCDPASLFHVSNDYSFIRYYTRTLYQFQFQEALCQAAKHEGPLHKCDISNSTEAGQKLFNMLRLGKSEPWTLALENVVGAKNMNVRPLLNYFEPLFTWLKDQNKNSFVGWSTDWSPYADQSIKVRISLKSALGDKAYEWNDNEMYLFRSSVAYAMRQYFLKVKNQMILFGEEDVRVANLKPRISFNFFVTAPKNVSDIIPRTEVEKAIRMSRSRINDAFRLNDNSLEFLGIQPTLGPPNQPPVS

- IC50 [1]: 0.34 ± 0.0501 nM
- IC50 (B38-CAP): 0.71 ± 0.173 nM
SMILES: CC(C)C[C@H](N[C@@H](Cc1cncn1Cc1cc(Cl)cc(Cl)c1)C(=O)O)C(=O)O [MLN-4760]
